For one assay, the system named is vaccinia virus (VACV). Put plainly: microbe, parasite or virus in culture. To be noted: for IC50: Orthopoxvirus vaccinia. The format is cell-based.
Assay [1] concerns recombinant VACV (vL1Ri) EGFP under synthetic early/late promoter. The format is cell-based, vaccinia virus.
In assay [2] the test system is E9/A20/D4 dependent in vitro DNA synthesis. The note with it: cited from earlier work.
The subject of another assay is E3 protein. The format is cell-based, vaccinia virus.
The next assay has as its system A4 protein. The format is cell-based, vaccinia virus.
Assay [3] relates to VACV viral factories in BSC-1 cells. The format is cell-based, vaccinia virus.

Read-outs that look alike come from different tables or passages of the source.

Regarding `Cc1ccc2c(c1)c(Sc1ccc(Cl)cc1)c(C(=O)O)n2C` [Compound 2], the “antiviral activity (in words)” value in the assay with vaccinia virus (VACV) was “loss”.
For `CCCCCCNC(=O)CCc1[nH]c2cc(C)ccc2c1Sc1cc(Cl)cc(Cl)c1` [Compound 24e, 3-(3-((3,5-Dichlorophenyl)thio)-6-methyl-1H-indol-2-yl)-N-hexylpropanamide], the “antiviral activity (in words)” value in the assay on vaccinia virus (VACV) was “loss of activity”.
Take `Cc1ccc2c(Sc3cccc(F)c3)c(C(=O)O)[nH]c2c1` [Compound 18b]: the IC50 (commonly the concentration that inhibits the measured activity by half) with vaccinia virus (VACV) (read-out: IC50 (antiviral activity, Table 2)) is 56 µM.
As for `CNC(=O)c1[nH]c2cc(C)ccc2c1Sc1cc(Cl)cc(Cl)c1` [Compound 28], in the assay with vaccinia virus (VACV), the “antiviral activity (in words)” value was “loss of activity”.
The same measure, in the same setting: next, `COC(=O)c1[nH]c2ccc(C)cc2c1Sc1ccc(Cl)cc1` [Compound 7]: “lost activity”; `O=C(O)c1[nH]c2ccccc2c1Sc1ccc(Cl)cc1` [Compound 1d]: “loss of activity”; `COc1ccc(Sc2c(C(=O)O)[nH]c3cc(C)ccc23)cc1` [Compound 18e]: “failed to show antiviral activities”.
For `Cc1ccc2c(Sc3ccc(C(=O)O)cc3)c(C(=O)O)[nH]c2c1` [Compound 18f], the “antiviral activity (in words)” value with vaccinia virus (VACV) is “loss of activity”.
With `Cc1cccc2[nH]c(C(=O)O)c(Sc3ccc([N+](=O)[O-])cc3)c12` [Compound 19c], the “antiviral activity (in words)” value with vaccinia virus (VACV) is listed as “loss of activity”.
With `Cc1ccc2c(Sc3cc(Cl)cc(Cl)c3)c(CCC(=O)O)[nH]c2c1` [Compound 24d, 3-(3-((3,5-Dichlorophenyl)thio)-6-methyl-1H-indol-2-yl)propanoic acid], the “fold decrease in antiviral potency” value in the assay on vaccinia virus (VACV) was ~ 5 fold.
For `Cc1ccc2c(Sc3cc(Cl)c(Cl)cc3Cl)c(C(=O)O)[nH]c2c1` [Compound 30], the IC50 with vaccinia virus (VACV) (read-out: IC50 (antiviral activity, Table 3)) was 21 µM.
Regarding `Nc1ccn(C[C@@H](CO)OCP(=O)(O)O)c(=O)n1.O.O` [CDV, cidofovir, reference compound], in assay [1], the EGFP expression entry is reported as “equally effective”; the “EGFP expression, treatment post vL1Ri adsorption” value is “comparable EGFP expression and CPE to DMSO vehicle”.
Turning to `Cc1ccc2c(Sc3ccc(Cl)cc3)c(C(=O)O)[nH]c2c1` [Compound 1, 3-((4-Chlorophenyl)thio)-6-methyl-1H-indole-2-carboxylic acid], in assay [2], the “inhibition of in vitro DNA synthesis” value was “ability to inhibit in vitro DNA synthesis”.
On to `Cc1ccc2c(Sc3ccccc3)c(C(=O)O)[nH]c2c1` [Compound 18], for which the “antiviral activity (in words)” value in the assay with vaccinia virus (VACV) is recorded as “abolished its antiviral activity”.
Take `CCn1c(C(=O)O)c(Sc2ccc(Cl)cc2)c2cc(C)ccc21` [Compound 3]: the “antiviral activity (in words)” value with vaccinia virus (VACV) was “no gain in activities”.
`Cc1ccc2c(Sc3cc(Cl)cc(Cl)c3)c(CCCC(N)=O)[nH]c2c1` [Compound 24c, 4-(3-((3,5-Dichlorophenyl)thio)-6-methyl-1H-indol-2-yl)butanamide]: the “fold decrease in antiviral potency” value with vaccinia virus (VACV) is ~ 5 fold.
As to `COc1cccc2[nH]c(C(=O)O)c(Sc3ccc(Cl)cc3)c12` [Compound 1i], the “antiviral activity (in words)” value with vaccinia virus (VACV) was “loss of activity”.
With `COC(=O)c1[nH]c2cc(C)ccc2c1Sc1cc(Cl)cc(Cl)c1` [Compound 27], in the assay with vaccinia virus (VACV), the “antiviral activity (in words)” value was “loss of activity”.
Consider `Cc1ccc2c(Sc3ccc(Br)cc3)c(C(=O)O)[nH]c2c1` [Compound 18c], for which the “antiviral activity (in words)” value in the assay with vaccinia virus (VACV) is reported as “loss of activity”.
Regarding `COc1ccc(Sc2c(C(=O)O)[nH]c3cccc(C)c23)cc1` [Compound 19], the “antiviral activity (in words)” value in the assay on vaccinia virus (VACV) was “failed to show antiviral activities”.
On to `Cc1ccc2c(Sc3cc(Cl)cc(Cl)c3)c(CCC(N)=O)[nH]c2c1` [Compound 24a, 3-(3-((3,5-Dichlorophenyl)thio)-6-methyl-1H-indol-2-yl)propanamide], for which, in assay [1], the EGFP expression entry is given as “significantly reduced”; the “EGFP expression, treatment post vL1Ri adsorption” value was “appreciable EGFP expression”; the “cytopathic effect (CPE)” value is given as “lowered”. In the assay on E3 protein, the “E3 early protein level” value is given as “slight decrease”. Also, the “A4 late protein level” value in the assay on A4 protein is “dramatically reduced in a dose-dependent manner”. The “BrdU labeling of viral factories” value in assay [3] is “significantly suppressed”.
As for `COC(=O)c1ccc(Sc2c(C(=O)O)[nH]c3cccc(C)c23)cc1` [Compound 19b], the “antiviral activity (in words)” value in the assay with vaccinia virus (VACV) is given as “failed to show antiviral activities”.
Turning to `COC(=O)c1[nH]c2c(C)cccc2c1Sc1ccc(Cl)cc1` [Compound 8], in the assay with vaccinia virus (VACV), the “fold improvement in antiviral potency over parent 1” value is ~ 4 fold.
Still for that read-out and setting: the result for `COC(=O)c1[nH]c2cccc(C)c2c1Sc1ccc(Cl)cc1` [Compound 9] reads ~ 4 fold.
Take `Cc1ccc(Sc2c(C(=O)O)[nH]c3cccc(C)c23)cc1` [Compound 19a]: in the assay with vaccinia virus (VACV), the “antiviral activity (in words)” value is given as “failed to show antiviral activities”.
For `COC(=O)c1[nH]c2cc(C)ccc2c1Sc1ccc(Cl)cc1` [Compound 6], in the assay with vaccinia virus (VACV), the “fold improvement in antiviral potency over parent 1” value is reported as ~ 4 fold.
For `Cc1ccc2c(Sc3ccc(C(F)(F)F)cc3[N+](=O)[O-])c(C(=O)O)[nH]c2c1` [Compound 31], in the assay on vaccinia virus (VACV), the “antiviral activity (in words)” value was “loss of activity”.
Consider `Cc1ccc(Sc2c(C(=O)O)[nH]c3cc(C)ccc23)cc1` [Compound 18d], for which, in the assay on vaccinia virus (VACV), the “antiviral activity (in words)” value is on record as “failed to show antiviral activities”.

The values above are taken from PMC10306345 (Journal of medicinal chemistry, 2013).
